Literature values, collected in US6511683B1, “Enchinacea supplement and method of manufacture” (Factors R & D Technologies Ltd., priority 1999, dated 2003).

Key:
granulocytes = settings: Awang et al.
immune system = settings: Awang et al.

## O=C(/C=C/c1ccc(O)c(O)c1)O[C@@H](C(=O)O)[C@@H](OC(=O)/C=C/c1ccc(O)c(O)c1)C(=O)O [cichoric acid, 2,3-o-di-caffeoyl-tartaric acid]
granulocytes
  phagocytosis in granulocytes: increase
Immune system
  concentration that may stimulate the immune system: ≥ 0.01 ppm
